Data set [1] in a line: Electrochemical behavior of the compound assessed as redox potential corrected toward saturated Ag/AgCl reference electrode by cyclic voltammetry.
Data set [2] can be described thus: Antioxidant activity assessed as DPPH radical scavenging activity measured after 45 mins by UV-Visible spectrophotometric based assay. The format is functional. For orientation: Loss of DPPH colour is used to gauge radical scavenging.
Data set [3] is described as follows: Electrochemical behavior of the compound assessed as redox potential corrected toward saturated Ag/AgCl reference electrode by differential pulse voltammetry.
A short description of data set [4]: Antioxidant activity assessed as ABTS radical scavenging activity measured after 15 mins by UV-Visible spectrophotometric based assay. Format: functional.
In data set [5] the test system is SH-SY5Y. As to the kind of experiment: Neuroprotective activity against TBHP-induced oxidative damage in human SH-SY5Y cells assessed as increase in cell viability at 50 uM pretreated for 24 hrs followed by TBHP stimulation measured after 4 hrs by MTT assay relative to control. Format: functional. For orientation: Tetrazolium dyes change colour on reduction, which living cells bring about.

Data set [6] can be described thus: Cytotoxicity against human HepG2 cells assessed as cell metabolic activity at 10 uM incubated for 48 hrs by resazurin assay relative to control. The note with it: read-out: Activity. Format: ADME, cell-based. For orientation: The colour change of resazurin is a common sign of viable cells or microbes.
Data set [7] has as its system SH-SY5Y. In words: Neuroprotective activity against H2O2-induced oxidative damage in human SH-SY5Y cells assessed as reduction in cell damage at 10 uM pretreated for 24 hrs followed by H2O2 challenge measured after 30 mins by MTT assay relative to control. The format is functional.
The nature of data set [8]: Metal chelating activity assessed as compound-Fe2+ complex formation at 100 uM incubated for 10 mins by ferrozine spectrophotometric assay.
Data set [9] is described as follows: Cytotoxicity against human SH-SY5Y cells assessed as cell metabolic activity at 10 uM incubated for 24 hrs by MTT assay relative to control. Format: ADME, cell-based. The note with it: read-out: Activity.
In data set [10] the test system is SH-SY5Y. As to the kind of experiment: Neuroprotective activity against TBHP-induced oxidative damage in human SH-SY5Y cells assessed as increase in cell viability at 10 uM pretreated for 24 hrs followed by TBHP stimulation measured after 4 hrs by MTT assay relative to control. Format: functional, cell-based.
For data set [11], the system named is SH-SY5Y. As to the kind of experiment: Neuroprotective activity against 6-OHDA-induced toxicity in human SH-SY5Y cells assessed as reduction in cell damage at 10 to 50 uM pretreated for 24 hrs followed by 6-OHDA challenge and measured after 24 hrs by MTT assay relative to control. The format is functional.
A short description of data set [12]: Cytotoxicity against human SH-SY5Y cells assessed as cell metabolic activity at 50 uM incubated for 24 hrs by MTT assay relative to control. The note with it: read-out: Activity. The format is ADME, cell-based.
A short description of data set [13]: Cytotoxicity against human HepG2 cells assessed as cell metabolic activity at 50 uM incubated for 48 hrs by resazurin assay relative to control. The note with it: read-out: Activity. Format: ADME, cell-based.
Data set [14] deals with SH-SY5Y. As to the kind of experiment: Neuroprotective activity against H2O2-induced oxidative damage in human SH-SY5Y cells assessed as reduction in cell damage at 50 uM pretreated for 24 hrs followed by H2O2 challenge measured after 30 mins by MTT assay relative to control. Format: functional. The arrangement: scale not given: the % may be the effect or the level left.

The source made the active and inactive calls. No cut-off for these calls is given here. Some results are limits rather than exact numbers.

`O=C(O)CCc1ccc(O)c(O)c1` [DIHYDROCAFFEIC ACID]: the Activity turned out to be 112 mV in data set [1] and 216 mV in [3]. Also, the IC50 (commonly the midpoint of a concentration-inhibition curve) in [2] stood at 24.8 µM; in data set [4] it was 24 µM.
On to `O=C(O)c1ccc(O)c(O)c1` [PROTOCATECHUIC ACID], for which the Activity in data set [1] and in [3] was 234 mV in each case. Also, the IC50 was determined as 42 µM in data set [2] and 26.1 µM in [4].
For the molecule `O=C(O)/C=C/c1ccc(O)c(O)c1` [CAFFEIC ACID], the Activity in [1] and in data set [3] was 168 mV throughout. The IC50 was 28.5 µM in data set [2] and 20.5 µM in data set [4].
As to `O=C(O)Cc1ccc(O)c(O)c1` [3,4-DIHYDROXYPHENYLACETIC ACID], the values for the Activity in data set [1] and in data set [3] were 122 mV and 270 mV, respectively. Also, the IC50 in [2] was determined as 26.2 µM; in [4], 18 µM.
In the case of `O=C(NCCCCCC[P+](c1ccccc1)(c1ccccc1)c1ccccc1)c1ccc(O)c(O)c1`, the outcome in the data set on SH-SY5Y [5], in the data set on SH-SY5Y [7], in the data set with SH-SY5Y [10] and with SH-SY5Y [11] was inactive. Also, the viability at 48 h, 10 µM in data set [6] stood at 97.4%. Moreover, the Activity is 219 mV in data set [1], above 80% in data set [8] and 219 mV in [3]. Also, the viability at 24 h, 10 µM in [9] is 102%. In addition, the figures for the IC50 in data set [2] and in [4] were 31 µM and 20.7 µM, respectively. Moreover, in [12], the viability at 24 h, 50 µM turned out to be 96.9%. Moreover, the viability at 48 h, 50 µM in data set [13] was 90.3%.
On to `Cc1c(C)c2c(c(C)c1O)CCC(C)(C(=O)O)O2` (configuration not stated) [TROLOX], for which, in [6], the viability at 48 h, 10 µM came out at 5.99%. Also, the Activity in [1] and in [3] was 113 mV in each case. In addition, the viability at 24 h, 10 µM in data set [9] is 3.62%. Further, the half-maximal inhibitory concentration (IC50) in data set [2] worked out at 31.1 µM; in data set [4], 24.5 µM. Moreover, the viability at 24 h, 50 µM in data set [12] was 3.62%. Also, the viability at 48 h, 50 µM in data set [13] was 5.99%.
In the case of `O=C(O)/C=C/c1cc(O)c(O)c(O)c1`, the Activity in data set [1] was 56 mV; in data set [3], 589 mV. In addition, the figures for the IC50 in data set [2] and in [4] were 10.3 µM and 4.6 µM, respectively.
For `O=C(O)Cc1cc(O)c(O)c(O)c1` the same measures were 135 mV, 550 mV, 6.8 µM and 4.7 µM.
The like results for `O=C(O)CCc1cc(O)c(O)c(O)c1` were, in that order, 120 mV, 543 mV, 11.1 µM and 9.2 µM.
For `O=C(O)c1cc(O)c(O)c(O)c1` [GALLIC ACID] the same measures were 120 mV, 559 mV, 9.9 µM and 7.8 µM.
Regarding `CS(=O)(=O)[O-].O=C(/C=C/c1ccc(O)c(O)c1)NCCCCCC[P+](c1ccccc1)(c1ccccc1)c1ccccc1`, the outcome in the data set on SH-SY5Y [5], in the data set on SH-SY5Y [10] and in the data set with SH-SY5Y [11] was inactive. The viability at 48 h, 10 µM in [6] worked out at 111%. Moreover, the Activity was 70.8 - 83.3% in the data set on SH-SY5Y [7]; 164 mV in data set [1]; above 80% in data set [8]; 164 mV in [3]; 70.8 - 83.3% in the data set on SH-SY5Y [14]. In addition, the viability at 24 h, 10 µM in data set [9] turned out to be 103%. Besides, the IC50 in data set [2] was determined as 29.5 µM; in [4], 30.5 µM. For the same molecule, in data set [12], the viability at 24 h, 50 µM is 97.6%. Further, the viability at 48 h, 50 µM in data set [13] was 112%.

Source of the values: ChEMBL document CHEMBL4390649, “Fine-tuning the neuroprotective and blood-brain barrier permeability profile of multi-target agents designed to prevent progressive mitochondrial dysfunction” (Eur J Med Chem, 2019).
